According to patent US11168287B2, “Anti-adherent compositions and methods of inhibiting the adherence of microbes to a surface” (Kimberly-Clark Worldwide, Inc., priority 2016, dated 2021):

Assays:
S. aureus ATCC 6538 = assay: High Throughput Attachment Test Method (bacterial attachment to MBEC pegs), S. aureus; type: cell-based, Staphylococcus aureus; settings: pegs coated with compound in 5% glycerin and QS water; Con. Wt. %: #1,4,5,6 = 5; #2,3 = 2; #7,8,9 = 100; 15 min bacterial challenge
Experimental: (§1) Anti-adherent compositions including anti-adherent agents as discussed herein were tested against bacteria using the High Throughput Attachment Test Method. The High Throughput Attachment Test Method is discussed in further detail below. The anti-adherent compositions including the anti-adherent agents were tested against Gram-positive Staphylococcus aureus, and Gram-negative Escherichia coll. The pH of the compositions for this testing between 3 to 10 pH, or about 4 to about 8 pH.
(§2) This test method specifies the operational parameters required to grow and or prevent the formation of bacterial attachment using a high throughput screening assay. The assay device consists of a plastic lid with ninety-six (96) pegs and a corresponding receiver plate with ninety-six (96) individual wells that have a maximum 200 μL working volume. Biofilm is established on the pegs under static batch conditions (i.e., no flow of nutrients into or out of an individual well).
(§3) 6.1.1 E. coli ATCC 11229 and S. aureus ATCC 6538 are the organisms used in this test.
(§4) 6.1.5 Incubate flask at 35±2° C. and 175±10 rpm for 16 to 18 hours (E. coli and S. aureus). Viable bacterial density should be 10^9 CFU/mL and should be checked by serial dilution and plating.
(§5) 6.1.6 Pipette 10 mL from the incubation flask of E. coli and S. aureus into a 50 mL conical tube and spin down at 5 minutes at 4,000×g. Then remove supernatant and Resuspend in 10 mL sterile PBS. Approximate cell density should be 10^7-10^9 CFU/mL. Vortex the sample for approximately 30 seconds to achieve a homogeneous distribution of cells.
(§6) 6.2.1.1.1 Using a positive displacement pipette aseptically add 200 μL of compounds and control to be tested to a sterile 96-well microplate according to the plate layout of Table 4 below.
(§7) 6.2.1.1.3 Place the MBEC plate lid, peg side down into the 96-well microplate containing the test compound solutions.
(§8) 6.2.1.1.4 Allow the plate to sit at room temperature (25±3° C.) for 2 hours.
(§9) 6.2.1.1.5 Remove the MBEC plate lid and allow the lid to dry at room temperature (25±3° C.) overnight in a laminar flow hood. […]

E. coli ATCC 11229 = assay: High Throughput Attachment Test Method (bacterial attachment to MBEC pegs), E. coli; type: cell-based, Escherichia coli; settings: pegs coated with compound in 5% glycerin and QS water; Con. Wt. %: #1,4,5,6 = 5; #2,3 = 2; #7,8,9 = 100; 15 min bacterial challenge
Experimental: as §1, §2, §3, §4, §5, §6, §7, §8, §9

Phi X 174 = assay: High Throughput Test to Quantify the Attachment of Phage to a Surface, DNA virus Phi X 174; parameters: species or system Phi X 174 bacteriophage; settings: for Phi X 174 Percent Reduct. (%) / Phi X 174 Log. R (PFU/mL) compared to growth controls: pegs coated with compound in 5% glycerin and QS water, Con. Wt. %: #1,4,5,6 = 5, #2,3 = 2, #7,8,9 = 100, 1 hour phage contact; for Phi X 174 Log. R (PFU/mL) compared to growth controls: positive = inhibits attachment; for Effect against DNA viruses (Phi X 174), in words: positive logarithmic reduction at statistically significant level = anti-adherent
Experimental: (§10) The anti-adherent compositions that inhibit the attachment of RNA and/or DNA viruses to a surface including compounds serving as anti-adherent agents against RNA and DNA viruses were tested against RNA and DNA viruses via the High Throughput Test to Quantify the Attachment of Phage to a Surface, as discussed in detail below. Tables 2 and 3 below show the variety of compounds that were tested as agents in a composition, as well as the results that related to the percent reduction in viruses and the Logarithmic Reduction compared to growth controls. As will be discussed in further detail below in the discussion regarding the High Throughput Test to Quantify the Attachment of Phage to a Surface, a positive logarithmic reduction in viruses equates to anti-adherent properties (e.g., inhibits attachment), and a negative logarithmic reduction in viruses equates to adherent properties (e.g., increases attachment).
The DNA virus that the compositions were tested against for attachment behaviors was Phi X 174. Bacteriophage are commonly utilized as surrogates of mammalian viruses in both medical and virology applications. Phi X 174 is commonly utilized as a viral surrogate because of its size, morphology, environmental stability, and non-human infectivity, and the ability for use in high throughput assays. Phi X174 has been previously been used to study barrier efficacy, making it an ideal surrogate to study attachment to a surface (See, Haman and Nelson, Am J Infect Control, 1993, 21:289-96, O'Connell, et al, Clin Microb Infect, 2004, 10:322-6, ASTM F1671/F1671M-13, Standard Test Method for Resistance of Materials Used in Protective Clothing to Penetration by Blood-Borne Pathogens Using Phi X174 Bacteriophage Penetration as a Test System). Thus, it is well accepted by those of ordinary skill in the art that Phi X 174 serves as a surrogate for other DNA viruses, and the compositions including the adherent agents noted above would act in a substantially similar behavior to other DNA viruses as they did against Phi X 174.
(§11) 1.5 Phage (MS2 and PhiX 174) Enumeration: • 1.5.1 Phage is prepared for use from the stock by diluting 1:1 in BPB. • 1.5.2 Spot Plate Method: • 1.5.2.1 A cell dilution of ˜10^6 CFU/mL of E. coli (E. coli K12 is used for MS2 phage and E. coli C is used for PhiX 174) is prepared from the prepared washed broth culture by diluting in sterile BPB. • 1.5.2.2 An inoculum check is performed on the bacterial dilution in triplicate. • 1.5.2.3 In a 96 well plate, columns 1-12 are filled with 180 μL of the 10^6 CFU/ml E. coli suspension in BPB • 1.5.2.4 20 μL of the samples to be diluted is added in column 1. • 1.5.2.5 10-fold (10×Dilution) in BPB is performed from 10^1-10^12 by moving 20 μL from column 1 to column 2 and mixing. This is repeated, moving down the columns until column 12. • 1.5.2.6 20 μL (or 10 if agar permits) is spot plated on a large labelled OSA plate (spot plate every second column to avoid cross merging of spot plated phages. • 1.5.2.7 Plates are inverted & incubated for 24 h at 37° C. • 1.5.2.8 After 24 h the number of PFU is counted.
(§12) • 1.6.1 Preparation of compounds and coating compounds onto MBEC plate lid • 1.6.2 Using a positive displacement pipette aseptically add 200 μL of compounds to be tested to a sterile 96-well microplate according to the plate layout described below. • 1.6.3 Add 200 μL of each code to the appropriate well for sterility controls. • 1.6.4 Place the MBEC plate lid, peg side down into the 96-well microplate containing the test compound solutions. • 1.6.5 Allow the plate to sit at room temperature (25±3° C.) for 2 hrs. • 1.6.6 Remove the MBEC plate lid and allow the lid to dry at room temperature (25±3° C.) overnight in a laminar flow hood by spacing the MBEC plate lid from the MBEC plate trough with two 10 μL disposable loops. […]

MS2 = assay: High Throughput Test to Quantify the Attachment of Phage to a Surface, RNA virus MS2; settings: for MS2 Percent Reduct. (%) / MS2 Log R (PFU/mL) compared to growth controls: pegs coated with compound in 5% glycerin and QS water, Con. Wt. %: #1,4,5,6 = 5, #2,3 = 2, #7,8,9 = 100, 1 hour phage contact; for MS2 Log R (PFU/mL) compared to growth controls: positive = inhibits attachment; for Effect against RNA viruses (MS2), in words: positive logarithmic reduction at statistically significant level = anti-adherent
Experimental: as §10
The RNA virus that the compositions were tested against for attachment behaviors was MS2. Bacteriophage are commonly utilized as surrogates of mammalian viruses in both medical and virology applications. MS2 phage is commonly utilized as a viral surrogate because of its size, morphology, environmental stability, non-human infectivity, and the ability for use in high throughput assays. Additionally, MS2 is commonly used as a surrogate to study the spread of human Norovirus (See, Tung-Thompson, et al, PLoS One, 2015, 10(8): e0134277, Dawson D J, et al, J App Micro, 2005, 98: 203-209, Jones, et al, J Hosp Infect, 1991, 17:279-85). The use of MS2 phage in hand sanitizer studies makes it an ideal surrogate to study the interaction of personal care products and viral attachment. It is believed that compositions including the adherent agents noted above would act in a substantially similar behavior to other RNA viruses as they did against MS2.
as §11, §12

| SMILES | Ratio of S. aureus growth on treated pegs to untreated pegs (%) (S. aureus ATCC 6538) | Ratio of E. coli growth on treated pegs to untreated pegs (%) (E. coli ATCC 11229) | Phi X 174 Percent Reduct. (%) (Phi X 174) | Phi X 174 Log. R (PFU/mL) compared to growth controls (Phi X 174) [PFU/mL] | Effect against DNA viruses (Phi X 174), in words (Phi X 174) | MS2 Percent Reduct. (%) (MS2) | MS2 Log R (PFU/mL) compared to growth controls (MS2) [PFU/mL] | Effect against RNA viruses (MS2), in words (MS2) |
| --- | --- | --- | --- | --- | --- | --- | --- | --- |
| CCCCCCCCCCCCCCCCCC(=O)OCC(CC)CCCC (stereo not shown) [Compound 7, Ethylhexyl Stearate] | 68.6 | 48.4 | 98.58 | 1.85 | anti-adherent | 87.46 | 0.90 | anti-adherent |
| CCCCC(CC)COC(=O)c1ccccc1O (stereo not shown) [Compound 8, Ethylhexyl Salicylate] | 75.4 | 111.1 | 91.45 | 1.07 | – | 85.40 | 0.84 | – |
| CCCCC(CC)COC(=O)C(C#N)=C(c1ccccc1)c1ccccc1 (stereo not shown) [Compound 9, Octocrylene] | 81.9 | 114.1 | 93.44 | 1.18 | anti-adherent | −30.27 | −0.11 | neutral |
